Test results taken from the NIST ThermoML archive (doi:10.1021/je034177v).

Legend:
[1] = molar heat capacity at constant pressure; details: 101 kPa, Liquid, Small sample (50 mg) DSC
[2] = 101 kPa, Liquid; for speed of sound: Pulse-echo method; for mass density: Vibrating tube method
[3] = molar heat capacity at constant pressure; xn = mol fraction of the nth substance listed; details: 101 kPa, Liquid, Small sample (50 mg) DSC, x2 = 0
[4] = xn = mol fraction of the nth substance listed; details: 101 kPa, Liquid, x2 = 0; for speed of sound: Pulse-echo method; for mass density: Vibrating tube method

ClCCCCCCl [1,5-dichloropentane]
Details	mass density, [2] [kg/m3]	molar heat capacity at constant pressure, [1] [J/K/mol]	speed of sound, [2] [m/s]
278.15 K	1115.28	–	1376.6
283.15 K	1110.26	209.65	1358.9
288.15 K	1105.2	210.73	1341
293.15 K	1100.16	211.89	1323.2
298.15 K	1095.11	212.94	1305.4
303.15 K	1090.07	214.06	1287.9
308.15 K	1085.02	215.21	1270.3
313.15 K	1079.97	216.38	1253
318.15 K	1074.95	217.56	1235.8
323.15 K	1069.89	218.76	1218.7
328.15 K	1064.93	–	1201.6

ClCCCCCCCl [1,6-dichlorohexane]
Details	mass density, [2] [kg/m3]	molar heat capacity at constant pressure, [1] [J/K/mol]	speed of sound, [2] [m/s]
278.15 K	1082.7	–	1387.4
283.15 K	1077.97	236.59	1370
288.15 K	1073.22	237.9	1352.3
293.15 K	1068.47	239.26	1334.8
298.15 K	1063.74	240.6	1317.3
303.15 K	1059	241.94	1299.9
308.15 K	1054.25	243.37	1282.7
313.15 K	1049.5	244.81	1265.7
318.15 K	1044.78	246.28	1248.7
323.15 K	1040.03	247.76	1231.8
328.15 K	1035.37	–	1215.1

CCCCCCCCCCCC [dodecane]
Details	mass density, [2] [kg/m3]	molar heat capacity at constant pressure, [1] [J/K/mol]	speed of sound, [2] [m/s]
278.15 K	759.56	–	1357
283.15 K	755.96	368.47	1337.4
288.15 K	752.36	370.48	1317.6
293.15 K	748.74	372.74	1298
298.15 K	745.14	375.04	1278.5
303.15 K	741.52	377.43	1259.2
308.15 K	737.88	380.02	1240
313.15 K	734.24	382.73	1221
318.15 K	730.6	385.48	1202.3
323.15 K	726.95	388.29	1183.6
328.15 K	723.29	–	1165.1

CCCCCCCCCCCC [dodecane] + ClCCCCCCCl
Details	mass density, [4] [kg/m3]	molar heat capacity at constant pressure, [3] [J/K/mol]	speed of sound, [4] [m/s]
278.15 K	759.56	–	1357
283.15 K	755.96	368.47	1337.4
288.15 K	752.36	370.48	1317.6
293.15 K	748.74	372.74	1298
298.15 K	745.14	375.04	1278.5
303.15 K	741.52	377.43	1259.2
308.15 K	737.88	380.02	1240
313.15 K	734.24	382.73	1221
318.15 K	730.6	385.48	1202.3
323.15 K	726.95	388.29	1183.6
328.15 K	723.29	–	1165.1

CCCCCCCCCCCC [dodecane] + ClCCCCCCl
Details	mass density, [4] [kg/m3]	molar heat capacity at constant pressure, [3] [J/K/mol]	speed of sound, [4] [m/s]
278.15 K	759.56	–	1357
283.15 K	755.96	368.47	1337.4
288.15 K	752.36	370.48	1317.6
293.15 K	748.74	372.74	1298
298.15 K	745.14	375.04	1278.5
303.15 K	741.52	377.43	1259.2
308.15 K	737.88	380.02	1240
313.15 K	734.24	382.73	1221
318.15 K	730.6	385.48	1202.3
323.15 K	726.95	388.29	1183.6
328.15 K	723.29	–	1165.1
